Usually kinact/KI stands for the maximal inactivation rate divided by the concentration that gives half of it. By Ki is commonly meant the equilibrium dissociation constant of an inhibitor or competing ligand from its target.

The values that follow come from article PMC4138410 (Bioorganic & medicinal chemistry, 2014).

Like-named read-outs stand apart in the source and are kept apart here.

Data set [1] has as its target T1, BoNT/A LC (Clostridium botulinum, UniProt P0DPI0). The experiment in a line: biochemical. Format: biochemical.
For data set [2] the following is noted: pH 7.4; for %GSH remaining at 30 min: 0.5 h.
Data set [3] concerns the target T1, BoNT/A LC. The experiment in a line: biochemical. Format: biochemical. The source holds these as a separate data set.
The target of data set [4] is T1, BoNT/A LC. Type of data set: biochemical.
For data set [5], the target named is T1, BoNT/A LC. Type of data set: biochemical. This is another data set of the same source.
Another data set deals with BoNT/A. The conditions noted are these: cited from earlier work.

T1 sequence (P0DPI0 2-425 limits assumed): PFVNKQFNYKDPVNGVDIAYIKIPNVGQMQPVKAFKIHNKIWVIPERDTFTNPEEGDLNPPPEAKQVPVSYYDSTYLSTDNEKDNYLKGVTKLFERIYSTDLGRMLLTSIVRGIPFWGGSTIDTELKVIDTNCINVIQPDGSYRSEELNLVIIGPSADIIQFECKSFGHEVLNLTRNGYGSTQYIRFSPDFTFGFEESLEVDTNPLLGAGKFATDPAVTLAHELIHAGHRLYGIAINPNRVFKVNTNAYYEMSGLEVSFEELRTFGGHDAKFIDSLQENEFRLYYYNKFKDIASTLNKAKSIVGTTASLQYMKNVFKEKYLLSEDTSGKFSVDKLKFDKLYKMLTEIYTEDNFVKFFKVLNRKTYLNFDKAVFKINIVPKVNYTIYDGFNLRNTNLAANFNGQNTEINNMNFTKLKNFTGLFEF

With `O=C1C=C(Cl)C(=O)C=C1Cl` [Compound 1, 2,5-diCl-BQ], the “effect on catalytic activity (in words)” value at BoNT/A LC [1] is on record as “completely abrogated catalytic activity”. The “%GSH remaining at 10 s” value in data set [2] (10 s) was found to be 0%. Further, the “%GSH remaining at 30 min” value in data set [2] was found to be 0%. As to `O=C1C=CC(=O)C=C1` [Compound 3, BQ], the “irreversible/time-dependent inactivation in 66-mer assay (in words)” value on BoNT/A LC [3] is “comparable to the SNAPtide assay”. In the case of `CC1=CC(=O)C=CC1=O` [Compound 12, 2-Me-BQ], the kinact/KI on BoNT/A LC [1] turned out to be 3.5 M⁻¹ s⁻¹. Regarding `O=C1C=CC(=O)c2c(O)ccc(O)c21` [Compound 13, 5,8-diOH-NQ], in data set [2], the “%GSH remaining at 30 min” value was 39 (26) % and the “%GSH remaining at 1 hour” value is on record as 39 (26) %. For `COc1cccc2c1C(=O)C=CC2=O` [Compound 18, 5-OMe-NQ], in data set [2], the “%GSH remaining at 30 min” value is on record as 27 (14) % and the “%GSH remaining at 1 hour” value is listed as 27 (14) %.

For the molecule `O=C1C=CC(=O)c2cc(O)ccc21` [Compound 19, 6-OH-NQ], in data set [2], the “%GSH remaining at 30 min” value is recorded as 32 (22) % and the “%GSH remaining at 1 hour” value was 32 (22) %.

Consider `COC1=CC(=O)C(OC)=C(c2ccc(C)cc2)C1=O` [Compound 21, 2,5-diOMe-3-Tol-BQ], for which, in data set [2], the “%GSH remaining at 30 min” value was 49 (35) % and the “%GSH remaining at 1 hour” value is 49 (35) %.

As for `O=C1C=CC(=O)C(CC(=O)O)=C1` [Compound 22, 2-(3,6-Dioxocyclohexa-1,4-dien-1-yl)acetic acid], the kinact/KI on BoNT/A LC [3] came out at 2.5 M⁻¹ s⁻¹. In addition, the “inhibition of BoNT/A in 66-mer assay (in words)” value (from here on “inhibition”) against BoNT/A LC [4] is “fairly active”.

As for `COC1=CC(=O)C=C(OC)C1=O` [Compound 24, 2,6-diOMe-BQ], the “%GSH remaining at 30 min” value in data set [2] worked out at 0%.

For the molecule `CC1=CC(=O)C=C(C)C1=O` [Compound 25, 2,6-diMe-BQ], the “%GSH remaining at 30 min” value in data set [2] is 0%.

With `NCC(=O)Nc1ccc(Oc2ccccc2)cc1` [Compound 28, 2-Amino-N-(4-phenoxyphenyl)acetamide], on BoNT/A LC [5], the “effect on BQ-mediated inactivation of BoNT/A (in words)” value is listed as “competed”. In the case of `O=C1C=CC(=O)C(CNCC(=O)Nc2cccc(OCc3ccccc3)c2)=C1` [Compound 30, N-[3-(Benzyloxy)phenyl]-2-{[(3,6-dioxocyclohexa-1,4-dien-1-yl)methyl]amino}acetamide], at BoNT/A LC [4], the “fold increase in potency by addition of BQ vs analogous amino acetamide” value (shortened to “fold increase … vs analogous amino acetamide”) is recorded as 26 fold. For `O=C1C=CC(=O)C(Nc2cccc(C(=O)NCc3ccc(Oc4ccccc4)cc3)n2)=C1` [Compound 31, 6-[(3,6-Dioxocyclohexa-1,4-dien-1-yl)amino]-N-(4-phenoxybenzyl)picolinamide], at BoNT/A LC [4], the “fold increase in activity by adding the phenoxyphenyl fragment” value turned out to be 7 fold and the “fold increase … vs analogous amino acetamide” value is given as 21 fold. Take `O=C1C=CC(=O)C(Cn2cnc(C(=O)NCc3ccc(-c4ccccc4)cc3)n2)=C1` [Compound 32, N-([1,1′-Biphenyl]-4-ylmethyl)-1-[(3,6-dioxocyclohexa-1,4-dien-1-yl)methyl]-1H-1,2,4-triazole-3-carboxamide]: the “fold increase … vs analogous amino acetamide” value at BoNT/A LC [4] was found to be 64 fold. As for `COc1ccc(OC)c(CNCC(=O)Nc2cccc(OCc3ccccc3)c2)c1` [Compound 33, N-[3-(Benzyloxy)phenyl]-2-[(2,5-dimethoxybenzyl)amino]acetamide], the “inhibition” value on BoNT/A LC [4] is recorded as “well tolerated”. Regarding `COc1ccc(OC)c(Nc2cccc(C(=O)NCc3ccc(Oc4ccccc4)cc3)n2)c1` [Compound 34, 6-[(2,5-Dimethoxyphenyl)amino]-N-(4-phenoxybenzyl)picolinamide], the “inhibition” value on BoNT/A LC [4] is reported as “decrease in activity”. Still for that read-out and setting: with `O=C(NCc1ccc(Oc2ccccc2)cc1)c1ccccn1` [Compound 35, N-(4-phenoxybenzyl)picolinamide] the entry was “high IC50 values”; with `COc1ccc(OC)c(Cn2cnc(C(=O)NCc3ccc(-c4ccccc4)cc3)n2)c1` [Compound 38, N-([1,1′-Biphenyl]-4-ylmethyl)-1-(2,5-dimethoxybenzyl)-1H-1,2,4-triazole-3-carboxamide], “decrease in activity”; with `O=C(NCc1ccc(-c2ccccc2)cc1)c1nc[nH]n1` [Compound 39, N-([1,1′-Biphenyl]-4-ylmethyl)-1H-1,2,4-triazole-3-carboxamide], “high IC50 values”. For `C=CC(=O)Nc1cccnc1` [Compound 41], the “irreversible/time-dependent inactivation in 66-mer assay (in words)” value on BoNT/A LC [3] is on record as “no irreversible inhibition”. The “inhibition” value against BoNT/A LC [4] is listed as “weakly inhibited”. Take `CS(=O)(=O)SCCCN` [MTSPA, (3-aminopropyl)methanethiosulfonate]: on BoNT/A, the Ki was 7.7 µM. Regarding `CCN1C(=O)C=CC1=O` [N-ethylmaleimide, reference compound], at BoNT/A LC [1], the “inactivation of BoNT/A in SNAPtide screen (in words)” value is “weakly inactivated” and the “inhibitory rank in SNAPtide assay (in words)” value was “one of the weakest inhibitors tested”. With chicoric acid [CA], the “effect on BQ-mediated inactivation of BoNT/A (in words)” value on BoNT/A LC [5] was “not affected”.
